Assays:
SALL4 = SALL4 (Homo sapiens (Human), UniProt Q9UJQ4); test: SALL4 expression in Tera-1 cells (Western blot); format: cell-based
Method: (§1) For Western blot analysis, total proteins were extracted using RIPA buffer (ThermoFisher Scientific, Waltham, MA) containing Halt Protease Inhibitor Cocktail (ThermoFisher Scientific). […] After incubation at 4° C. overnight, the following HRP conjugated secondary antibodies were used: (i) goat anti-rabbit IgG (ThermoFisher Scientific) for ikaros and aiolos, and (ii) goat anti-mouse IgG (ThermoFisher Scientific) for SALL4 and GAPDH. […] Antigen-antibody complexes were detected using enhanced chemiluminescence (Thermo, iBright CL1500).
(§2) Specifically, MM1.S cells were obtained from ATCC (Manassas, VA, USA), grown in RPMI media supplemented with 10% FBS, penicillin 100 U/mL, and streptomycin […], and maintained at 37° C. and 5% CO2.
as §1, with “MA, USA)” for “MA)”, “Scientific). Thereafter, the proteins were separated by gel electrophoresis and then transferred to polyvinylidene difluoride (PVDF) membranes (ThermoFisher Scientific), as described previously.” for “Scientific).”, “HRP-conjugated” for “HRP conjugated”, “Ikaros” for “ikaros”, “Aiolos,” for “aiolos,”, “(ThermoFisher Scientific,” for “(Thermo,”

Aiolos = Aiolos (Homo sapiens (Human), UniProt Q9UKT9); test: Aiolos degradation in MM1.S cells (Western blot); format: cell-based; conditions: 1 μM, relative to GAPDH
Method: as §1, §2
(§3) For Western blot analysis, total proteins were extracted using RIPA buffer (ThermoFisher Scientific, Waltham, MA, USA) containing Halt Protease Inhibitor Cocktail (ThermoFisher Scientific). Thereafter, the proteins were separated by gel electrophoresis and then transferred to polyvinylidene difluoride (PVDF) membranes (ThermoFisher Scientific), as described previously. […] Antigen-antibody complexes were detected using enhanced chemiluminescence (ThermoFisher Scientific, iBright CL1500).

[1] = target: cereblon (CRBN/DDB1-CUL4A-Rbx1 complex) / BRD3 (Homo sapiens (Human), UniProt Q96SW2); test: Cereblon/BRD3 binding assay (AlphaScreen / FRET); conditions: cereblon/BRD3 binding FRET assay
Method: After 30 min of incubation with shaking at room temperature, AlphaLISA anti-FLAG Acceptor and Alpha Glutathione Donor beads (PerkinElmer) were sequentially added and then incubated for 1 hr at room temperature for each of the added chemicals. Alpha counts were thereafter read on a Synergy Neo2 (BioTek) for the analysis. Relative activity or inhibition was calculated as the highest value, which was set to 100%, and the lowest value was set to 0% after subtraction of the “blank value” from all readings.
After 30 min of incubation with shaking at room temperature, AlphaLISA anti-FLAG Acceptor and Alpha Glutathione Donor beads (PerkinElmer) were sequentially added and then incubated for 1 h at room temperature for each of the added chemicals. Alpha counts were thereafter read on a Synergy Neo2 (BioTek) for the analysis. The relative activity of the alpha signal was calculated after subtraction of the “blank value” from all readings, and the value of the vehicle group was then set as 100%.

Ikaros = Ikaros (Homo sapiens (Human), UniProt Q13422); test: Ikaros degradation in MM1.S cells (Western blot); format: cell-based; conditions: 1 μM, relative to GAPDH
Method: as §1, §2, §3

[2] = Phase I metabolic stability in human liver microsomes (+/- NADPH, LC/MS); format: in vitro ADME; conditions: for % Compound Remaining (mean), NADPH: with NADPH; for % Compound Remaining (mean), -NADPH: without NADPH
Method: The fluorinated compounds were evaluated under the more metabolically demanding conditions of a Phase-1-type microsomal analysis. […] For this initial comparison, the 7-fluoro-dithiopomaldiomide 30 was selected owing to its combination of favorable biological parameters and general ease of synthesis. The reactions on each sample were initiated by addition of human liver microsomes in the presence or absence of an NADPH regenerating system, and compound disappearance was monitored via LC/MS (FIG. 14, Table 10).

[3] = system: LPS-induced nitrite in RAW 264.7 cells; test: LPS-induced nitrite production in RAW 264.7 cells (Griess reagent / fluorometric kit); format: cell-based, mouse; conditions: for Nitrite, % Change versus Control (± s.e.m.): 10 uM
Method: Nitrite ion detection in drug treated […] cell culture media: To measure the levels of nitrite ion NO2—) the Griess Reagent System (Promega, Madison, WI, Cat #G2930) was utilized. The protocol followed was that recommended by the manufacturer. In brief a NO2— ion standard curve was prepared in culture media of the same composition to that used for the cell culture study. The concentration range of the standard curve was from 1.5 µM to 100 µM. Equal volumes (50 μL) of standards and unknown samples were added to clear 96 well plates in duplicate. Then 50 μL of sulfanilamide solution was added to each well and the plate was covered and incubated in the dark for 10 min. After the incubation period 50 μL of N-1-napthylethylenediamine dihydrochloride solution was added to each well and the plate was incubated in dark for a further 10 min. After this incubation, the plate was read at 550 nm on a SPECTRAmax PLUS plate reader and the absorbances were used to generate a NO2— standard curve and the NO2— ion levels of the unknown samples are determined using SoftMax Pro V5, Molecular Devices.
Most neurons are highly vulnerable to RNS and ROS. Nitric oxide (NO) is one of RNSs, which is very short lived and cannot be readily measured. However, nitrite is a stable end product of nitric oxide metabolism. Therefore, nitrite acts as a surrogate measure of NO. The Griess Reagent System (Promega Corporation, Madison, WI) can be applied to measure nitrite levels in culture media following the manufacturer's protocol, and this system was used in the present study as it is a more sensitive assay compared to quantifying actions on TNF-α by ELISA assay. […] This challenge induces high level of TNF-α protein accompanied by a robust generation of nitrite.
(§4) Cells were propagated as described by ATCC guidelines.

RAW 264.7 cells = test: Cell viability of drug treated RAW 264.7 cells (CellTiter 96 AQueous One, MTS); conditions: 10 uM
TNF-α = test: LPS-induced TNF-α production in RAW 264.7 cells (ELISA); format: cell-based, mouse; conditions: 10 uM
Method: Enzyme-linked immunosorbent assay for TNF-α protein: Media TNF-α levels were measured by use of the Biolegend ELISA MAX Set Delux ELISA (#430904). The protocol used was that recommended by the manufacturer. In brief, a day prior to performing the assay, a 96 well plate was coated with a capture antibody directed against TNF-α. The following day the assay plate was washed and blocked with the kit blocking agent for 1 h while being mixed on a plate shaker at 200 rpm (all incubations were mixed at 200 rpm unless stated otherwise). A TNF-α protein standard curve was prepared in the assay diluent following the kit instructions and unknown media samples were likewise diluted in the same assay diluent. After blocking, the plate was washed and then both the standards and unknown media samples were added to the plate in duplicate. The standards and unknown samples were incubated for 2 h. After the incubation, the plate was washed and then the biotin labeled detection antibody was added to each well and incubated for a further 1 h. After this incubation, the avidin-HRP conjugate complex was added to each well and incubated for 30 min. The plate was washed and the chromogenic substrate 3,3′,5,5′-tetramethylbenzidine solution was added to each well. At this point the plate was covered and incubated in the dark for 15 min, with no mixing. After 15 min the chromogenic reaction was stopped by the addition of 2 N H2SO4 and the absorbance was read at 450 nm and for background subtractions at 570 nm, on a SPECTRAmax PLUS plate reader. The absorbances were used to generate a TNF-α a protein standard curve and the protein levels in the unknown samples were determined using SoftMax Pro V5, Molecular Devices.
as §4

[4] = LPS-activated RAW 264.7 cells (Table 9)

Sequence of cereblon (CRBN/DDB1-CUL4A-Rbx1 complex) / BRD3 (Q96SW2 whole entry): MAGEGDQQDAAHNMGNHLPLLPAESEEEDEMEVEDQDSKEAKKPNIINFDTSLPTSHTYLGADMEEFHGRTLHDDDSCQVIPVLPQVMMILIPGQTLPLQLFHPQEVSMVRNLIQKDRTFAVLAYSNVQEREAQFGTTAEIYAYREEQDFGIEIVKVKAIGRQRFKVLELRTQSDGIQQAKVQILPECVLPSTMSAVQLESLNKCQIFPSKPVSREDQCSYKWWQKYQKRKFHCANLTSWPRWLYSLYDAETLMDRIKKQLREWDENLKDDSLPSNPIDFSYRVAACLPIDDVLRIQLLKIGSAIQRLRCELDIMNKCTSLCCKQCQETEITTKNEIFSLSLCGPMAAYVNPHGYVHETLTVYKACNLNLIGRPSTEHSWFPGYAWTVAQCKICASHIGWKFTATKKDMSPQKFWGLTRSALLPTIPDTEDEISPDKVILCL
Sequence of cereblon (CRBN/DDB1-CUL4A-Rbx1 complex) / BRD3 (Q16531 whole entry partner): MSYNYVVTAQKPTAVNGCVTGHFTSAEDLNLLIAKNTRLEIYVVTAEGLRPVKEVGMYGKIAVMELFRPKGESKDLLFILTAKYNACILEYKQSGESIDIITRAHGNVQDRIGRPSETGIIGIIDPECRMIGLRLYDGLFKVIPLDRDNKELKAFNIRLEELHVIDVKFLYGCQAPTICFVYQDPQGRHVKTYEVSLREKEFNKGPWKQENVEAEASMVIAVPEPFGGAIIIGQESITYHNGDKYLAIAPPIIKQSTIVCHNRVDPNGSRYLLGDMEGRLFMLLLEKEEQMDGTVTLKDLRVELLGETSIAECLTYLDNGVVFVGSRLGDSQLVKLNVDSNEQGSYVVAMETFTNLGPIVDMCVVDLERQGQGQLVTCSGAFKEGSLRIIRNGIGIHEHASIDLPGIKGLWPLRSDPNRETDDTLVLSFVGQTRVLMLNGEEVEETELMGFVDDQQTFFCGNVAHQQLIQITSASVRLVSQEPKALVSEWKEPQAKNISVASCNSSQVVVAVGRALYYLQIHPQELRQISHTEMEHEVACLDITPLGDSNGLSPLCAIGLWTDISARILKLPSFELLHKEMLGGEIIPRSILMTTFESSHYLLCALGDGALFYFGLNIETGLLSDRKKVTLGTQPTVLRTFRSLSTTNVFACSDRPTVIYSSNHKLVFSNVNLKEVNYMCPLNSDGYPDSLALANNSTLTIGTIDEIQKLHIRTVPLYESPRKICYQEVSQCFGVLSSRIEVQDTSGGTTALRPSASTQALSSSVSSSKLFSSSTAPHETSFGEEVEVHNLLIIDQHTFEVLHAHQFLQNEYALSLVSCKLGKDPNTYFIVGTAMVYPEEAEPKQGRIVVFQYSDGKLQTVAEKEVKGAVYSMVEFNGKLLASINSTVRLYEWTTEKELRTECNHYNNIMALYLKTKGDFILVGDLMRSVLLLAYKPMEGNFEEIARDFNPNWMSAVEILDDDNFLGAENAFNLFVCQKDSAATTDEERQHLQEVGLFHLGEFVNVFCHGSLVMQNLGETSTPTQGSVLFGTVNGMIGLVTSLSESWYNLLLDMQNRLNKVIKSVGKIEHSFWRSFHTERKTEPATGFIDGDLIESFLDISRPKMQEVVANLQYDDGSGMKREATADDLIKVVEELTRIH
Sequence of cereblon (CRBN/DDB1-CUL4A-Rbx1 complex) / BRD3 (Q13619 whole entry partner): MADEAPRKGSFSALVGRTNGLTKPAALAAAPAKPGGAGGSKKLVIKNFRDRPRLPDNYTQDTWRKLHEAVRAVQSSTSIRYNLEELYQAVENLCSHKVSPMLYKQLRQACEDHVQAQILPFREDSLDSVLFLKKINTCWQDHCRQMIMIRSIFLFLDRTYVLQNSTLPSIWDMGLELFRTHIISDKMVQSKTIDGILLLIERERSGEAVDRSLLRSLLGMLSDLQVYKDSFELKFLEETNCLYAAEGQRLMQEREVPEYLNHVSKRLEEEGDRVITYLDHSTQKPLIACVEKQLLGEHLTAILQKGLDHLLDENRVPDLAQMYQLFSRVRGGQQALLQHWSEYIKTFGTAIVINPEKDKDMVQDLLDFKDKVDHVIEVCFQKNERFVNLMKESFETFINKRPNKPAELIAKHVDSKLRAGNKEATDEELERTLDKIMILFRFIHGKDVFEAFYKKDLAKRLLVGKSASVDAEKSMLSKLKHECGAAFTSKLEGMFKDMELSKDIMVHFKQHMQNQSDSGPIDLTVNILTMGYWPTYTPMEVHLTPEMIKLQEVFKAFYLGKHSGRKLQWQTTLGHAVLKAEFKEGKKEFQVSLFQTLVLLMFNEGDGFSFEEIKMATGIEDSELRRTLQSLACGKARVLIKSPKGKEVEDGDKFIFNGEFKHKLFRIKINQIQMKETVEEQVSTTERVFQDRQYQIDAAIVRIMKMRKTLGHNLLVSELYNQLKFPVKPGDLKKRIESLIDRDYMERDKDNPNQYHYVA
Sequence of cereblon (CRBN/DDB1-CUL4A-Rbx1 complex) / BRD3 (P62877 whole entry partner): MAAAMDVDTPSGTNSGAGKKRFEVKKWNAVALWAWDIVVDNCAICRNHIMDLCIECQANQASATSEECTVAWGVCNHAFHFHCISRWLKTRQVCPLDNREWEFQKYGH

## Nc1cccc2c1C(=O)N(C1CCC(=O)NC1=O)C2=O (racemic) [Pomalidomide, pomalidomide, reference compound]
SALL4; Tera-1 cells, 1 μM
  SALL4 expression levels: induced a decrease in expression levels of SALL4
SALL4; human Tera-1 cells, 0.01, 0.1, 1 μM, relative to GAPDH
  SALL4 levels: dramatically lowerered
Aiolos
  Aiolos levels: dramatically lowerered
[1]
  cereblon binding (in words): potently bind to cereblon
Ikaros
  Ikaros levels: dramatically lowerered

## Nc1cccc2c1C(=S)N(C1CCC(=S)NC1=O)C2=O (centres unmarked) [4′, 3,6′-dithiopomalidomide, reference compound]
[2]; after 1 hr incubation, human liver microsomes
  material consumed: more than half
[2]; with and without NADPH
  stability in human liver microsomes (in words): moderate level of instability
[3]; six-compound pomalidomide grouping, RAW cell assay, FIGS. 12-13
  nitrite levels (in words): reduced nitrite levels significantly

## CC(C)Nc1ccc(F)c2c1C(=S)N(C1CCC(=S)NC1=O)C2=O (centres unmarked) [Compound 28, 7-fluoro-4-(isopropylamino)-2-(2-oxo-6-thioxopiperidin-3-yl)-3-thioxoisoindolin-1-one]
RAW 264.7 cells; LPS-activated RAW 264.7 cells
  Viability, % Change versus Control (± s.e.m.): 74.1 ± 4.2%
TNF-α; LPS-activated RAW 264.7 cells
  TNF-a, % Change versus Control (± s.e.m.): 74.7 ± 2.3%
[3]; LPS-activated RAW 264.7 cells
  Nitrite, % Change versus Control (± s.e.m.): 32.3 ± 1.1%

## Nc1cccc2c1C(=S)N(C1CCC(=S)NC1=O)C2=O (centres unmarked) [drawing 90]
RAW 264.7 cells; [4]
  Viability, % Change versus Control (± s.e.m.): 92 ± 1.8 (N.S.) %
TNF-α; [4]
  TNF-a, % Change versus Control (± s.e.m.): 113 ± 5.4 (N.S.) %
[3]; [4]
  Nitrite, % Change versus Control (± s.e.m.): 43 ± 1.0 (N.S.) $ %

## Nc1ccc(F)c2c1C(=O)N(C1CCC(=O)NC1=O)C2=O (centres unmarked) [drawing 91]
RAW 264.7 cells; [4]
  Viability, % Change versus Control (± s.e.m.): 102 ± 0.8 (N.S.) %
TNF-α; [4]
  TNF-a, % Change versus Control (± s.e.m.): 98 ± 1.5 (N.S.) %
[3]; [4]
  Nitrite, % Change versus Control (± s.e.m.): 86 ± 3.9 (N.S.) %

## Nc1ccc(F)c2c1C(=S)N(C1CCC(=S)NC1=O)C2=O (centres unmarked) [drawing 92]
RAW 264.7 cells; [4]
  Viability, % Change versus Control (± s.e.m.): 95 ± 3.0 (N.S.) %
TNF-α; [4]
  TNF-a, % Change versus Control (± s.e.m.): 109 ± 2.4 (N.S.) %
[3]; [4]
  Nitrite, % Change versus Control (± s.e.m.): 22 ± 1.7 ( **** ) %

## Nc1c(F)ccc2c1C(=O)N(C1CCC(=O)NC1=O)C2=O (centres unmarked) [drawing 93]
RAW 264.7 cells; [4]
  Viability, % Change versus Control (± s.e.m.): 90 ± 2.6 (N.S.) %
TNF-α; [4]
  TNF-a, % Change versus Control (± s.e.m.): 93 ± 4.1 (N.S.) %
[3]; [4]
  Nitrite, % Change versus Control (± s.e.m.): 100 ± 5.5 (N.S.) %

## Nc1c(F)ccc2c1C(=S)N(C1CCC(=S)NC1=O)C2=O (centres unmarked) [drawing 94]
RAW 264.7 cells; [4]
  Viability, % Change versus Control (± s.e.m.): 92 ± 1.6 (N.S.) %
TNF-α; [4]
  TNF-a, % Change versus Control (± s.e.m.): 114 ± 3.9 (N.S.) %
[3]; [4]
  Nitrite, % Change versus Control (± s.e.m.): 40 ± 1.2 (N.S.) $ %

## Nc1ccc(F)c2c1C(=S)N(C1CCC(=S)NC1=O)C2=O (centres unmarked) [drawing 96]
[2]; human liver microsomes, 0 min
  % Compound Remaining (mean), NADPH: 100%
  % Compound Remaining (mean), -NADPH: 100%
[2]; human liver microsomes, 30 min
  % Compound Remaining (mean), NADPH: 68%
  % Compound Remaining (mean), -NADPH: 71%
[2]; human liver microsomes, 60 min
  % Compound Remaining (mean), NADPH: 48%
  % Compound Remaining (mean), -NADPH: 53%
